From US20240287089A1, “Preparation and Uses of 7-Azaindenoisoquinolines” (Purdue Research Foundation, priority 0001, published 2024)
Blank lines part the entries; values can stand above or below the compound they belong to.

Columns and labels:
in vivo = format: in vivo
c-Myc [1] = test: Western blot of RD-ES tumor xenograft tissue; format: in vivo, human
Text: (§1) In several cases, the levels of c-Myc were more greatly depressed at the lower dose level. For examples, see the 9-hour data for G104 in Tables 17 and 18 and the 6-hour data in Table 19. […] Overall, there are many unexpected and unexplained aspects of the data in Tables 17-19, which are highly variable and also highly dependent on cell type. In particular, drug-induced increases in c-Myc expression relative to control and the larger changes in c-Myc expression seen at lower vs. higher doses are counterintuitive and unexplained.

γ-H2AX = test: Western blot of RD-ES tumor xenograft tissue; format: in vivo, human
Text: as §1

c-Myc [2] = test: Western blot of RS4;11 tumor xenograft tissue; format: in vivo, human
Text: as §1

[3] = test system: MYC mRNA in MCF-7 breast cancer cells; test: qRT-PCR of MYC mRNA; format: cell-based; settings: MCF-7, 1.0 μM, 6 h
Experimental: Quantitative Reverse Transcriptase PCR (qRT-PCR). MCF-7 cells were grown and treated in 12-well tissue culture plates until collection. Total RNA was extracted using TRIzol reagent (15596018, Life Technologies). Purified RNA was dissolved in DEPC water and quantified. 1 μg purified RNA per sample was converted to cDNA using qScript cDNA SuperMix (84034, Quantabio) according to manufacturer's instruction. Real-time PCR reagents were made for each sample by mixing 1 μL synthesized cDNA, 3 μL PCR-grade water, 5 μL SYBR Green reagent (A25742, Applied Biosystem), and 0.25 μL each primer for Myc and GAPDH. Reactions were set up in triplicate for each target of each sample. Real-time PCR was conducted in 96-well PCR plates with a QuantStudio 6 Flex Real-Time PCR System (Life Technologies). The cycling condition was 95° C. for 5 min, followed by 40 cycles at 95° C. for 15 s, 60° C. for 15 s, and 72° C. for 15 s. The relative Myc expression was calculated using the 2^−ΔΔCt method by normalizing against GAPDH as the endogenous control.

[4] = test system: RS4;11 human leukemia cells; test: RS4;11 xenograft in female NOD SCID mice; format: in vivo
Experimental: (§2) Xenograft Studies. […] JQ1 was employed as a positive control.
The compounds were also evaluated in an RS4;11 human leukemia xenograft model (FIGS. 20 and 21). Treatment was started 12 days after tumor inoculation, with drugs being administered on days 1-5 and 11-15 after the start of treatment. Animal weights and tumor volumes were determined at 12, 15, 19, 22, and 25 days after tumor inoculation.

[5] = mouse, 1 μM
[6] = test system: MOLT-4 human leukemia cells; test: MOLT-4 xenograft in female NOD SCID mice; format: in vivo; settings: 20 mg/kg IV, 24 days after tumor inoculation
Text: as §2

[7] = Brain penetration and plasma/brain pharmacokinetics in combination with Temodar or Lynparza; settings: for Vd: iv, 10 mg/kg, Vss—obs
[8] = 10 mg/kg IV + Lynparza 100 mg/kg PO, 0.25 h
[9] = 10 mg/kg IV + Lynparza 100 mg/kg PO, 0.5 h
[10] = 10 mg/kg IV + Lynparza 100 mg/kg PO, 1 h
[11] = 10 mg/kg IV + Lynparza 100 mg/kg PO, 2 h
[12] = 10 mg/kg IV + Lynparza 100 mg/kg PO, 4 h
[13] = 10 mg/kg IV + Lynparza 100 mg/kg PO, 8 h
[14] = 10 mg/kg IV + Lynparza 100 mg/kg PO, 24 h
[15] = LMP400 10 mg/kg IV + Temador 125 mg/kg PO, 0.25 h
[16] = LMP400 10 mg/kg IV + Temador 125 mg/kg PO, 0.5 h
[17] = LMP400 10 mg/kg IV + Temador 125 mg/kg PO, 2 h
[18] = LMP400 10 mg/kg IV + Temador 125 mg/kg PO, 4 h
[19] = LMP400 10 mg/kg IV + Temador 125 mg/kg PO, 8 h
[20] = LMP400 10 mg/kg IV + Temador 125 mg/kg PO, 24 h
[21] = brain, 10 mg/kg IV + Lynparza 100 mg/kg PO
[22] = brain, LMP400 10 mg/kg IV + Temador 125 mg/kg PO
[23] = plasma, 10 mg/kg IV + Lynparza 100 mg/kg PO
[24] = plasma, LMP400 10 mg/kg IV + Temador 125 mg/kg PO

Structure (SMILES): CCNCCCn1c2c(c3cc(OC)c(OC)cc3c1=O)C(=O)c1cc3c(nc1-2)OCO3 [G104, 6-(3-(Ethylamino)propyl)-2,3-dimethoxy-5H-[1,3]dioxolo[4″,5″:5′,6′]pyrido [3′,2′:4,5]cyclopenta[1,2-c]isoquinoline-5,12(6H)-dione]
Kp at 3 h (in vivo; NOD SCID, mouse, tumor and plasma, RS4;11, 3 h, IV 15 mg/kg, read-out: Mean Tumor/Plasma Ratio): 76.1 ± 18.9
Mean Tumor/Plasma Ratio (in vivo; RS4;11, 3 h, IV 30 mg/kg): 77.3 ± 11.8
Mean Tumor/Plasma Ratio (in vivo; RS4;11, 9 h, IV 15 mg/kg): 130 ± 32
Mean Tumor/Plasma Ratio (in vivo; RS4;11, 9 h, IV 30 mg/kg): 112 ± 16
c-Myc/GAPDH, % Relative to Vehicle (c-Myc [1]; IV 15 mg/kg, 3 h): 128.94 ± 6.14%
c-Myc/GAPDH, % Relative to Vehicle (c-Myc [1]; IV 15 mg/kg, 6 h): 53.57 ± 10.75%
c-Myc/GAPDH, % Relative to Vehicle (c-Myc [1]; IV 30 mg/kg, 3 h): 188.78 ± 28.24%
c-Myc/GAPDH, % Relative to Vehicle (c-Myc [1]; IV 30 mg/kg, 6 h): 91.67 ± 23.70%
γ-H2AX/GAPDH, % Relative to Vehicle (γ-H2AX; IV 15 mg/kg, 3 h): 155.18 ± 11.44%
γ-H2AX/GAPDH, % Relative to Vehicle (γ-H2AX; IV 15 mg/kg, 6 h): 101.89 ± 7.35%
γ-H2AX/GAPDH, % Relative to Vehicle (γ-H2AX; IV 30 mg/kg, 3 h): 85.61 ± 23.26%
γ-H2AX/GAPDH, % Relative to Vehicle (γ-H2AX; IV 30 mg/kg, 6 h): 99.26 ± 10.19%
c-Myc/GAPDH, % Relative to Vehicle (c-Myc [2]; RS4;11, IV 15 mg/kg, 3 h): 92.20 ± 2.11%
c-Myc/GAPDH, % Relative to Vehicle (c-Myc [2]; RS4;11, IV 15 mg/kg, 9 h): 92.59 ± 13.64%
c-Myc/GAPDH, % Relative to Vehicle (c-Myc [2]; RS4;11, IV 30 mg/kg, 3 h): 111.60 ± 8.19%
c-Myc/GAPDH, % Relative to Vehicle (c-Myc [2]; RS4;11, IV 30 mg/kg, 9 h): 100.31 ± 2.71%

Structure (SMILES): COc1cc2c3c(n(CCCNCCO)c(=O)c2cc1OC)-c1nc2c(cc1C3=O)OCO2 [G105, 6-(3-((2-Hydroxyethyl)amino)propyl)-2,3-dimethoxy-5H-[1,3]dioxolo[4″,5″:5′,6′]pyrido[3′,2′:4,5]cyclopenta[1,2-c]isoquinoline-5,12(6H)-dione]
MYC mRNA level [3]: significantly lowered MYC mRNA levels
toxicity estimated from decrease in animal weight ([4]; 20 mg/kg IV): most toxic
reduction of tumor volume ([4]; IV days 1-5 and 11-15, G105 20 mg/kg, G104 15 and 30 mg/kg): most potent
Mean Tumor/Plasma Ratio (in vivo; RS4;11, 3 h, IV 10 mg/kg): 62.3 ± 17.7
Mean Tumor/Plasma Ratio (in vivo; RS4;11, 3 h, IV 20 mg/kg): 111 ± 18
Mean Tumor/Plasma Ratio (in vivo; RS4;11, 9 h, IV 10 mg/kg): 185 ± 25
Mean Tumor/Plasma Ratio (in vivo; RS4;11, 9 h, IV 20 mg/kg): 383 ± 183
% Stability at 6 hrs [5]: 97.59%
c-Myc/GAPDH, % Relative to Vehicle (c-Myc [1]; IV 10 mg/kg, 3 h): 128.18 ± 13.67%
c-Myc/GAPDH, % Relative to Vehicle (c-Myc [1]; IV 10 mg/kg, 6 h): 69.45 ± 15.02%
c-Myc/GAPDH, % Relative to Vehicle (c-Myc [1]; IV 20 mg/kg, 3 h): 154.98 ± 17.80%
c-Myc/GAPDH, % Relative to Vehicle (c-Myc [1]; IV 20 mg/kg, 6 h): 71.97 ± 14.55%
γ-H2AX/GAPDH, % Relative to Vehicle (γ-H2AX; IV 10 mg/kg, 3 h): 145.80 ± 32.79%
γ-H2AX/GAPDH, % Relative to Vehicle (γ-H2AX; IV 10 mg/kg, 6 h): 111.73 ± 14.44%
γ-H2AX/GAPDH, % Relative to Vehicle (γ-H2AX; IV 20 mg/kg, 3 h): 134.62 ± 18.03%
γ-H2AX/GAPDH, % Relative to Vehicle (γ-H2AX; IV 20 mg/kg, 6 h): 109.81 ± 27.72%
average animal weight relative to initial body weight [6]: 80.9±1.1%
c-Myc/GAPDH, % Relative to Vehicle (c-Myc [2]; RS4;11, IV 10 mg/kg, 3 h): 102.74 ± 3.45%
c-Myc/GAPDH, % Relative to Vehicle (c-Myc [2]; RS4;11, IV 10 mg/kg, 9 h): 74.98 ± 3.52%
c-Myc/GAPDH, % Relative to Vehicle (c-Myc [2]; RS4;11, IV 20 mg/kg, 3 h): 100.30 ± 16.76%
c-Myc/GAPDH, % Relative to Vehicle (c-Myc [2]; RS4;11, IV 20 mg/kg, 9 h): 80.45 ± 3.93%

Brain Conc [7, 8]: 14.924 ± 0.107 µM
Brain/Plasma Conc Ratio [7, 8]: 4.58
Plasma Conc [7, 8]: 3.258 ± 0.295 µM
Brain Conc [7, 9]: 12.083 ± 1.787 µM
Brain/Plasma Conc Ratio [7, 9]: 5.42
Plasma Conc [7, 9]: 2.231 ± 0.419 µM
Brain Conc [7, 10]: 6.67 ± 0.431 µM
Plasma Conc [7, 10]: 1.787 ± 0.169 µM
Brain Conc [7, 11]: 3.766 ± 0.408 µM
Brain/Plasma Conc Ratio [7, 11]: 2.73
Plasma Conc [7, 11]: 1.381 ± 0.084 µM
Brain Conc [7, 12]: 2.666 ± 0.265 µM
Brain/Plasma Conc Ratio [7, 12]: 2.83
Plasma Conc [7, 12]: 0.941 ± 0.19 µM
Brain Conc [7, 13]: 1.162 ± 0.104 µM
Plasma Conc [7, 13]: 0.491 ± 0.053 µM
Brain Conc [7, 14]: 0.235 ± 0.076 µM
Plasma Conc [7, 14]: 0.111 ± 0.039 µM
Brain/Plasma Conc Ratio [7, 15]: 5.99
Plasma Conc [7, 15]: 2.311 ± 0.274 µM
Brain Conc [7, 16]: 10.074 ± 1.157 µM
Brain/Plasma Conc Ratio [7, 16]: 5.20
Plasma Conc ([7]; LMP400 10 mg/kg IV + Temador 125 mg/kg PO, 1 h): 1.944 ± 0.211 µM
Brain/Plasma Conc Ratio [7, 17]: 3.16
Plasma Conc [7, 17]: 1.041 ± 0.057 µM
Brain Conc [7, 18]: 1.722 ± 0.226 µM
Brain/Plasma Conc Ratio [7, 18]: 2.79
Plasma Conc [7, 18]: 0.617 ± 0.024 µM
Brain Conc [7, 19]: 0.919 ± 0.165 µM
Brain/Plasma Conc Ratio [7, 19]: 1.91
Plasma Conc [7, 19]: 0.481 ± 0.104 µM
Brain Conc [7, 20]: 0.177 ± 0.07 µM
Brain/Plasma Conc Ratio [7, 20]: 0.96
AUCInf [7, 21]: 20928 ng·h/g
AUClast [7, 21]: 19983 ng·h/g
AUC—% Extrap—obs [7, 21]: 4.51%
Cmax [7, 21]: 12173 ng/g
T1/2 [7, 21]: 6.01 h
AUCInf [7, 22]: 16590 ng·h/g
AUClast [7, 22]: 15811 ng·h/g
AUC—% Extrap—obs [7, 22]: 4.70%
Cmax [7, 22]: 9080 ng/g
MRTInf—obs [7, 22]: 5.67 h
T1/2 [7, 22]: 6.35 h
Tmax [7, 22]: 4.98 min
concentration at 0.25 h ([7]; mouse, brain, intravenous, Brain Conc, LMP400 10 mg/kg IV + Temador 125 mg/kg PO, 0.25 h): 13.8 ± 0.638 µM
concentration at 1 h ([7]; mouse, brain, intravenous, Brain Conc, LMP400 10 mg/kg IV + Temador 125 mg/kg PO, 1 h): 5.36 ± 0.276 µM
concentration at 2 h ([7]; mouse, brain, intravenous, Brain Conc, LMP400 10 mg/kg IV + Temador 125 mg/kg PO, 2 h): 5.29 ± 0.321 µM
concentration at 0.5 h ([7]; mouse, plasma, intravenous, Plasma Conc, LMP400 10 mg/kg IV + Temador 125 mg/kg PO, 0.5 h): 1.94 ± 0.274 µM
Vd ([7]; mouse, plasma, plasma, 10 mg/kg IV + Lynparza 100 mg/kg PO): 10.4 L/kg
Vd ([7]; mouse, plasma, plasma, LMP400 10 mg/kg IV + Temador 125 mg/kg PO): 11.9 L/kg
AUCInf [7, 23]: 7.144 µg·h/mL
AUClast [7, 23]: 6.642 µg·h/mL
AUClast/D [7, 23]: 664 h·ng/mL per mg/kg
AUC—% Extrap—obs [7, 23]: 7.02%
C0 [7, 23]: 2.286 µg/mL
Cl_obs [7, 23]: 1.4 L/h/kg
T1/2 [7, 23]: 6.74 h
AUCInf [7, 24]: 6.248 µg·h/mL
AUClast [7, 24]: 5.823 µg·h/mL
AUClast/D [7, 24]: 582 h·ng/mL per mg/kg
AUC—% Extrap—obs [7, 24]: 6.80%
C0 [7, 24]: 3.042 µg/mL
Cl_obs [7, 24]: 1.6 L/h/kg
MRTInf—obs [7, 24]: 7.41 h
T1/2 [7, 24]: 7.03 h
Structure (SMILES): COc1cc2c3c(n(CCCN4CCOCC4)c(=O)c2cc1OC)-c1cc2c(cc1C3=O)OCO2 [LMP400, indotecan]
